Experiment [1] deals with p53-deleted MLL fusion gene (MLL-AF9) leukemia cells. The experiment in a line: Mouse acute myelogenous leukemia model, MLL-AF9 leukemia cells with the p53 gene deleted (Test Example 2). Format: in vivo. As to the method:
(§1) Hereinafter, Test examples 1 and 2 will be described. Test Example 1 and 2 were carried out with reference to J Clin Invest., 2013 Sep. 3, 123(9): 3876 to 3888; and Blood, 1 Sep. 2011, Volume 118, 2541 to 2550.
In the case where the survival period was extended depending on the function of a p53 gene, there is a concern that clinical usefulness may be limited. For this reason, the MLL fusion gene (MLL-AF9) leukemia cells were prepared in the same manner as in Test Example 1 by using mice in which the p53 gene was deleted.

In experiment [2] the test system is MLL fusion gene (MLL-AF9) leukemia cells. Kind of experiment: Mouse acute myelogenous leukemia model with MLL fusion gene (MLL-AF9) introduced (Test Example 1). Format: in vivo. As to the method:
as §1
A mouse acute myelogenous leukemia (AML) model into which the MLL fusion gene (MLL-AF9) inducing cancer was introduced, was prepared. Specifically, bone marrow cells were collected from a C57BL/6-Ly5.1 mouse (Sankyo Labo Service Corporation, INC., hereinafter the same applies), and hematopoietic stem precursor cells were isolated using CD117 MicroBeads. MLL-AF9 marked with GFP (green fluorescent protein) was introduced into these cells using a virus. This MLL-AF9-introduced cells were transplanted to the same strain (C57BL/6) mouse (Japan SLC, Inc., hereinafter the same applies), and GFP-positive leukemia cells were collected from the mouse spleens that developed leukemia. These cells were subjected to second, third, and fourth transplantations, and after the fourth transplantation, MLL fusion gene (MLL-AF9) leukemia cells causing all the mice to develop leukemia in about 2 weeks were collected.
These MLL fusion gene (MLL-AF9) leukemia cells 1×10^6/mouse were injected into the C57BL/6 mouse from the tail vein. On day 4 after the day of injection, 0.5% methylcellulose suspension of 5-hydroxy-1H-imidazole-4-carboxamide-3/4 hydrate (medicine) was administered orally to the mouse once per day at 160 mg/kg (in terms of free base) on Monday (day 4), Wednesday (day 6), and Friday (day 8), and this administration was continued during the survival period of the mouse.

Experiment [3] concerns leukemia associated with MLL (MLL-ENL). To be noted: FIG. 3 and FIG. 5 of Genes & development, Vol. 23, pp. 877 to 889, 2009; cited from earlier work.

On to `NC(=O)c1nc[nH]c1O` [5-hydroxy-1H-imidazole-4-carboxamide-3/4 hydrate], for which the “longest survival in medicine-administered group (FIG. 3)” value in experiment [1] is given as not below 40 days. Besides, the “survival period of medicine-administered group (FIG. 3)” value in experiment [1] (control mice died in less than 20 days) is given as not below 20 days. Further, the “proliferation of GFP+ cells in the peripheral blood (FIG. 4)” value in experiment [1] (day 19 after injection of leukemia cells) was “proliferation of GFP+ cells was suppressed”. For the same compound, the “survival period versus non-administered group, p53-deleted leukemia cells” value in experiment [1] (same manner as Test Example 1) was “extension of the survival period according to the present invention does not depend on the p53 gene”. Also, the “longest survival in medicine-administered group (FIG. 1)” value in experiment [2] (160 mg/kg orally Mon/Wed/Fri from day 4) is “up to 40 days”. For the same compound, the “survival period of medicine-administered group (FIG. 1)” value in experiment [2] (160 mg/kg orally Mon/Wed/Fri from day 4, control mice all died in about 20 days) is not below 30 days. For the same compound, in experiment [2] (C57BL/6 mouse, 1x10^6 MLL-AF9 leukemia cells via tail vein, 160 mg/kg (free base) orally once per day Mon/Wed/Fri from day 4, log-rank test significant), the “survival period versus non-administered group” value is recorded as “significant extension of the survival period”. Moreover, the “proliferation of GFP+ cells in the peripheral blood (FIG. 2)” value in experiment [2] (day 10 after injection of leukemia cells, Mann-Whitney's U test significant versus control) is recorded as “proliferation of GFP+ cells was suppressed”.

On to `Nc1ccn([C@@H]2O[C@H](CO)[C@@H](O)[C@@H]2O)c(=O)n1` [cytarabine], for which the “efficacy of existing chemotherapy in leukemia associated with MLL” value in experiment [3] is given as “not effective”.

As for `COc1cccc2c1C(=O)c1c(O)c3c(c(O)c1C2=O)C[C@@](O)(C(=O)CO)C[C@@H]3O[C@H]1C[C@H](N)[C@H](O)[C@H](C)O1` [doxorubicin], the “efficacy of existing chemotherapy in leukemia associated with MLL” value in experiment [3] is “not effective”.

The values are drawn from patent publication US20190209528A1, “MEDICINAL DRUG, METHOD, USE, AND COMPOUND FOR PREVENTING OR CURING LEUKEMIA ASSOCIATED WITH MLL” (FUJIFILM Corporation, priority 2016, published 2019).
